Test results reported in patent publication US20190053489A1, “ANTIMICROBIAL COMPOSITION” (NATIONAL UNIVERSITY CORPORATION TOKYO MEDICAL AND DENTAL …, priority 2016, published 2019).

Assays:
[1] = system: MRSA IID 1677; assay: Proliferation suppression against MRSA in a diluted medium (OD600); assay type: cell-based, Methicillin-Resistant Staphylococcus Aureus (MRSA); settings: diluted 1/2.5 LB medium, 37° C., OD 600 nm; complex 0.001%, lysozyme, chitosan and each of mixture 0.0005%; FIG. 1
Experimental: This test employed MRSA IID 1677, and this microbe strain was cultured in a normal broth medium at 37° C. for 20 hours. The cultured microbial solution was collected by centrifugation (3000 rpm, 10 minutes), suspended with sterilized water, and then diluted with sterilized water so that the optical density would satisfy OD600=1.0. The resultant was diluted 2000 times (corresponding to 10^6 CFU/ml) to prepare a reaction microbial solution.
Each of the LB test medium samples was added with 100 μl of reaction microbial solution and was shake cultured under the condition of 37° C. for 48 hours. Here, the LB test medium samples were prepared using 10 ml of 1/2.5 LB medium added with
(1) 10 ml of sterilized water, (2) 10 ml of the lysozyme-chitosan complex with a concentration of 0.002% (the concentration after addition was 0.001%), (3) 10 ml of lysozyme alone with a concentration of 0.001% (the concentration after addition was 0.0005%), (4) 10 ml of chitosan alone with a concentration of 0.001% (the concentration after addition was 0.0005%), and (5) 10 ml of the mixture of lysozyme and chitosan with a concentration of 0.001% (the concentration of each after addition was 0.0005%).
(§1) After that, 3 ml was extracted at time intervals (0, 1, and 2 days), and the optical density was measured at an absorption wavelength of 600 nm. […]

[2] = system: Pseudomonas aeruginosa NBRC 13275; assay: Proliferation suppression against pseudomonas aeruginosa in a diluted medium (OD600); assay type: cell-based; settings: diluted 1/2.5 TSB medium with phosphate buffer pH 7.0; complex 0.01%; FIG. 2
Experimental: This test employed Pseudomonas aeruginosa NBRC 13275, and this microbe strain was cultured in a normal broth medium at 37° C. for 20 hours. The cultured microbial solution was collected by centrifugation (3000 rpm, 10 minutes), suspended with sterilized water, and then diluted with sterilized water so that the optical density would satisfy OD600=1.0. The resultant was diluted 2000 times (corresponding to 10^6 CFU/ml) to prepare a reaction microbial solution.
Each of the TSB test medium samples was added with 100 μl of reaction microbial solution and was shake cultured under the condition of 37° C. for 48 hours. Here, the TSB test medium samples were prepared using 10 ml of 1/2.5 TSB medium added with 200 μl of 1 M phosphate buffer (pH 7.0), followed by further addition of […]
as §1

[3] = system: Pseudomonas aeruginosa NBRC 13275; assay: Proliferation suppression against pseudomonas aeruginosa NBRC 13275 in a standard medium (colony count method); assay type: cell-based; settings: standard TSB medium; for ratio of the number of pseudomonas aeruginosa (NBRC 13275) colonies produced to the control: 6 hours later, FIG. 11
Description: This test employed Pseudomonas aeruginosa NBRC 13275 or PAO 1, and other procedures were the same as those of [Example 5] described earlier.
Note that the results of FIG. 9 are each the average value of the values obtained by carrying out the colony count method three times and that the results of FIG. 10 are each the average value of the values obtained by carrying out the colony count method five times.
Note that the results of FIG. 11 are each the average value obtained with three replicate samples.

[4] = system: MRSA IID 1677; assay: MRSA-resistant microbe acquisition protocol (microdilution method); assay type: cell-based, Methicillin-Resistant Staphylococcus Aureus (MRSA); settings: subculture 25 generations; FIG. 12
Experimental: This test employed MRSA IID 1677, and a resistant microbe acquisition protocol was carried out by use of the microdilution method proposed by Japanese Society of Chemotherapy.

[5] = system: MRSA IID 1677; assay: Proliferation suppression against MRSA in a standard medium (colony count method); assay type: cell-based, Methicillin-Resistant Staphylococcus Aureus (MRSA)
Experimental: This test employed MRSA IID 1677, and this microbe strain was inoculated in 20 ml of a normal broth medium (manufactured by Eiken Chemical Co., Ltd., ‘Eiken’) for overnight shake culture at 37° C. The cultured microbial solution was collected by centrifugation (3000 rpm, 10 minutes), suspended with sterilized water, and then diluted with sterilized water so that the optical density would satisfy OD600=1.0. The resultant was diluted 2000 times (corresponding to 10^6 CFU/ml) to prepare a reaction microbial solution.
Here, the TSB test medium samples were prepared using 10 ml of TSB medium (BD BBL™) added with 200 μl of 1 M phosphate buffer (pH 7.0), followed by further addition of
(1) 10 ml of sterilized water, ([…]), (3) 10 ml of lysozyme alone with a concentration of 0.2% (the concentration after addition was 0.1%), (4) 10 ml of chitosan alone with a concentration of 0.2% (the concentration after addition was 0.1%), and (5) 10 ml of the mixture of lysozyme and chitosan with a concentration of 0.2% (the concentration of each after addition was 0.1%).
After that, 100 μl was extracted and seeded on the MH agar medium, and the number of colonies produced was observed (colony count method). […] Note that the results of FIG. 7 are each the average value of the values obtained by carrying out the colony count method three times.
Note that the results of FIG. 8 are each the average value obtained with two replicate samples.

Substance: lysozyme-chitosan complex: complex of lysozyme and water-soluble chitosan (molecular weight 14000 Da) bound to each other through the Maillard reaction
- proliferation suppression effect against MRSA for 48 hours [1]: marked improvement effect compared to lysozyme alone and the mixture of lysozyme and chitosan
- proliferation suppression effect against pseudomonas aeruginosa past 24 hours [2]: strong proliferation suppression effect
- proliferation suppression effect against NBRC 13275 ([3]; colony count 6 hours later, complex 0.2%, others 0.1%, FIG. 9): marked improvement effect compared to lysozyme alone, chitosan alone, and the mixture of lysozyme and chitosan
- ratio of the number of pseudomonas aeruginosa (NBRC 13275) colonies produced to the control ([3]; complex 0.2%): ~0%
- ratio of the number of pseudomonas aeruginosa (NBRC 13275) colonies produced to the control ([3]; complex 0.5%): ~0%
- change of MIC (minimum inhibitory concentration) on subculture [4]: hardly changed
- proliferation suppression effect against MRSA (ratio of colonies produced 6 hours later to control) ([5]; standard TSB medium with phosphate buffer pH 7.0, complex 0.2%, lysozyme, chitosan, each of mixture 0.1%, FIG. 7): marked improvement effect compared to chitosan alone and the mixture of lysozyme and chitosan
- proliferation suppression effect against MRSA 9 hours later ([5]; standard TSB medium, any of the complex concentrations 0.01%, 0.05%, 0.1%, 0.2%, FIG. 8): sufficient proliferation suppression effect
- ratio of the number of MRSA colonies produced to the control ([5]; standard TSB medium, complex 0.2%, past 6 hours, FIG. 8): ~0%
